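Assay format: 96-well plates, 48-hour exposure. The concentration for 50% growth inhibition is given as GI50. TGI: concentration producing complete growth inhibition.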
How the values were obtained:
Experiment in all cases: NCI tumour cell line growth inhibition, 48 h
786-0 renal = test system: 786-0 renal
A498 renal = test system: A498 renal
A549 NSCLC = test system: A549 NSCLC
ACHN renal = test system: ACHN renal
BT-549 breast = test system: BT-549 breast
CAKI-1 renal = test system: CAKI-1 renal
CCRF-CEM leukemia = test system: CCRF-CEM leukemia
COLO 205 colon = test system: COLO 205 colon
DU-145 prostate = test system: DU-145 prostate
EKVX NSCLC = test system: EKVX NSCLC
HCC-2998 colon = test system: HCC-2998 colon
HCT-116 colon = test system: HCT-116 colon
HCT-15 colon = test system: HCT-15 colon
HL-60(TB) leukemia = test system: HL-60(TB) leukemia
HOP-62 NSCLC = test system: HOP-62 NSCLC
HOP-92 NSCLC = test system: HOP-92 NSCLC
HS 578T breast = test system: HS 578T breast
HT29 colon = test system: HT29 colon
IGROV1 ovarian = test system: IGROV1 ovarian
K-562 leukemia = test system: K-562 leukemia
KM12 colon = test system: KM12 colon
M14 melanoma = test system: M14 melanoma
MALME-3M melanoma = test system: MALME-3M melanoma
MCF7 breast = test system: MCF7 breast
MDA-MB-231 breast = test system: MDA-MB-231 breast
MDA-MB-435 = test system: MDA-MB-435
MOLT-4 leukemia = test system: MOLT-4 leukemia
NCI-H226 lung = test system: NCI-H226 lung
NCI-H460 lung = test system: NCI-H460 lung
NCI-H522 lung = test system: NCI-H522 lung
NCI/ADR-RES ovarian = test system: NCI/ADR-RES ovarian
OVCAR-3 ovarian = test system: OVCAR-3 ovarian
OVCAR-4 ovarian = test system: OVCAR-4 ovarian
OVCAR-5 ovarian = test system: OVCAR-5 ovarian
OVCAR-8 ovarian = test system: OVCAR-8 ovarian
PC-3 prostate = test system: PC-3 prostate
RPMI-8226 leukemia = test system: RPMI-8226 leukemia
RXF 393 renal = test system: RXF 393 renal
SF-268 CNS = test system: SF-268 CNS
SF-295 CNS = test system: SF-295 CNS
SF-539 CNS = test system: SF-539 CNS
SK-MEL-2 melanoma = test system: SK-MEL-2 melanoma
SK-MEL-28 melanoma = test system: SK-MEL-28 melanoma
SK-MEL-5 melanoma = test system: SK-MEL-5 melanoma
SK-OV-3 ovarian = test system: SK-OV-3 ovarian
SN12C renal = test system: SN12C renal
SNB-19 CNS = test system: SNB-19 CNS
SNB-75 CNS = test system: SNB-75 CNS
SR leukemia = test system: SR leukemia
SW-620 colon = test system: SW-620 colon
T-47D breast = test system: T-47D breast
TK-10 renal = test system: TK-10 renal
U251 CNS = test system: U251 CNS
UACC-257 melanoma = test system: UACC-257 melanoma
UACC-62 melanoma = test system: UACC-62 melanoma
UO-31 renal = test system: UO-31 renal

Fc1ccc(-c2nc(C(Cl)Cl)nc3cc(-c4ccccc4)nn23)cc1
GI50 (786-0 renal): > 100 µM
TGI (786-0 renal): > 100 µM
GI50 (A498 renal): > 100 µM
TGI (A498 renal): > 100 µM
GI50 (A549 NSCLC): 3.72 µM
TGI (A549 NSCLC): 33.8 µM
GI50 (ACHN renal): 3.58 µM
TGI (ACHN renal): > 100 µM
GI50 (BT-549 breast): > 100 µM
TGI (BT-549 breast): > 100 µM
GI50 (CAKI-1 renal): 16 µM
TGI (CAKI-1 renal): > 100 µM
GI50 (CCRF-CEM leukemia): > 100 µM
TGI (CCRF-CEM leukemia): > 100 µM
GI50 (COLO 205 colon): 3.67 µM
TGI (COLO 205 colon): 21.9 µM
GI50 (DU-145 prostate): 2.46 µM
TGI (DU-145 prostate): 6.55 µM
GI50 (EKVX NSCLC): 7.79 µM
TGI (EKVX NSCLC): > 100 µM
GI50 (HCC-2998 colon): 2.27 µM
TGI (HCC-2998 colon): 6.21 µM
GI50 (HCT-116 colon): 38.5 µM
TGI (HCT-116 colon): > 100 µM
GI50 (HCT-15 colon): 4.64 µM
TGI (HCT-15 colon): > 100 µM
GI50 (HL-60(TB) leukemia): 3.79 µM
TGI (HL-60(TB) leukemia): > 100 µM
GI50 (HOP-62 NSCLC): 12.1 µM
TGI (HOP-62 NSCLC): > 100 µM
GI50 (HOP-92 NSCLC): > 100 µM
TGI (HOP-92 NSCLC): > 100 µM
GI50 (HS 578T breast): > 100 µM
TGI (HS 578T breast): > 100 µM
GI50 (HT29 colon): 3.92 µM
TGI (HT29 colon): > 100 µM
GI50 (IGROV1 ovarian): > 100 µM
TGI (IGROV1 ovarian): > 100 µM
GI50 (K-562 leukemia): 15.9 µM
TGI (K-562 leukemia): > 100 µM
GI50 (KM12 colon): 15.9 µM
TGI (KM12 colon): > 100 µM
GI50 (M14 melanoma): > 100 µM
TGI (M14 melanoma): > 100 µM
GI50 (MALME-3M melanoma): > 100 µM
TGI (MALME-3M melanoma): > 100 µM
GI50 (MCF7 breast): 7.36 µM
TGI (MCF7 breast): > 100 µM
GI50 (MDA-MB-231 breast): 35.4 µM
TGI (MDA-MB-231 breast): > 100 µM
GI50 (MDA-MB-435): > 100 µM
TGI (MDA-MB-435): > 100 µM
GI50 (MOLT-4 leukemia): 7.81 µM
TGI (MOLT-4 leukemia): > 100 µM
GI50 (NCI-H226 lung): > 100 µM
TGI (NCI-H226 lung): > 100 µM
GI50 (NCI-H460 lung): 3.63 µM
TGI (NCI-H460 lung): > 100 µM
GI50 (NCI-H522 lung): 7.36 µM
TGI (NCI-H522 lung): > 100 µM
GI50 (NCI/ADR-RES ovarian): 6.48 µM
TGI (NCI/ADR-RES ovarian): > 100 µM
GI50 (OVCAR-3 ovarian): 6.13 µM
TGI (OVCAR-3 ovarian): > 100 µM
GI50 (OVCAR-4 ovarian): 7.21 µM
TGI (OVCAR-4 ovarian): > 100 µM
GI50 (OVCAR-5 ovarian): 22.3 µM
TGI (OVCAR-5 ovarian): > 100 µM
GI50 (OVCAR-8 ovarian): 7.33 µM
TGI (OVCAR-8 ovarian): > 100 µM
GI50 (PC-3 prostate): > 100 µM
TGI (PC-3 prostate): > 100 µM
GI50 (RPMI-8226 leukemia): > 100 µM
TGI (RPMI-8226 leukemia): > 100 µM
GI50 (RXF 393 renal): 3.79 µM
TGI (RXF 393 renal): 18.5 µM
GI50 (SF-268 CNS): > 100 µM
TGI (SF-268 CNS): > 100 µM
GI50 (SF-295 CNS): 28.2 µM
TGI (SF-295 CNS): > 100 µM
GI50 (SF-539 CNS): > 100 µM
TGI (SF-539 CNS): > 100 µM
GI50 (SK-MEL-2 melanoma): > 100 µM
TGI (SK-MEL-2 melanoma): > 100 µM
GI50 (SK-MEL-28 melanoma): > 100 µM
TGI (SK-MEL-28 melanoma): > 100 µM
GI50 (SK-MEL-5 melanoma): > 100 µM
TGI (SK-MEL-5 melanoma): > 100 µM
GI50 (SK-OV-3 ovarian): 10.7 µM
TGI (SK-OV-3 ovarian): > 100 µM
GI50 (SN12C renal): > 100 µM
TGI (SN12C renal): > 100 µM
GI50 (SNB-19 CNS): 10.5 µM
TGI (SNB-19 CNS): > 100 µM
GI50 (SNB-75 CNS): > 100 µM
TGI (SNB-75 CNS): > 100 µM
GI50 (SR leukemia): 5.23 µM
TGI (SR leukemia): > 100 µM
GI50 (SW-620 colon): 5.05 µM
TGI (SW-620 colon): > 100 µM
GI50 (T-47D breast): > 100 µM
TGI (T-47D breast): > 100 µM
GI50 (TK-10 renal): > 100 µM
TGI (TK-10 renal): > 100 µM
GI50 (U251 CNS): 5.79 µM
TGI (U251 CNS): > 100 µM
GI50 (UACC-257 melanoma): > 100 µM
TGI (UACC-257 melanoma): > 100 µM
GI50 (UACC-62 melanoma): > 100 µM
TGI (UACC-62 melanoma): > 100 µM
GI50 (UO-31 renal): > 100 µM
TGI (UO-31 renal): > 100 µM

— PubChem BioAssay (NCI)
